According to patent publication US20070155803A1, “Protease inhibitors” (ProZymex A/S, priority 2003, published 2007):
Square brackets hold non-standard residues; d marks the D form. Peptide text beside a SMILES is read from it. Phe(3-F) = N[C@@H](Cc1cccc(F)c1)C(=O)O; hPhe = N[C@@H](CCc1ccccc1)C(=O)O; Abu = CC[C@H](N)C(=O)O; azaGly = NNC(=O)O

How the values were obtained:
[1] = biological target: T1, Human liver cathepsin B (Homo sapiens, UniProt P07858); assay: Human liver cathepsin B assay; assay type: biochemical
T1 construct: Human liver cathepsin B (Enzyme System Products, CAT-B); purchased Enzyme System Products CAT-B; host or cells: human liver
Experimental: Human Liver Cathepsin B Assay
Using this assay, the selectivity of a compound of the invention for hDPP-I over human cathepsin B was determined, using a fluorogenic substrate.
0.1 M MES buffer (1.95 g; M=195.2) and 1 mM EDTA (37 mg; M=372.2) were mixed in 100 mL H2O and pH adjusted to 6.1. DTT (10 μL, 0.5 M) was added for activation of the enzyme […].
Human liver cathepsin B (Enzyme System Products, CAT-B; stock 25 μg/54 μL=463 ng/μL). One aliquot was diluted to a concentration of 40 ng/μL by adding 53 μL assay buffer (without DTT). Just prior to experiment, two more dilution steps were performed: 4 ng/μL: 5 μL (40 ng/μL)+45 μL buffer (without DTT) 0.1 ng/μL: 5 μL (4 ng/μL)+[…] buffer (without DTT)
Boc-Leu-Arg-Arg-AFC.2TFA (Enzyme System Products AFC113). Stock solution made (20 mM; 15.1 mg dissolved in 1 ml DMSO). Diluted further in H2O to 10 mM. Km for this substrate has been determined to be 600 μM.
The assay was performed in 96-well plates. 84 μL assay buffer was added to the well followed by 10 μL 1% DMSO in assay buffer (control) or a compound, of the invention (10 μM in the assay). […] The excitation wavelength was 400 nm, and the emission was measured at 505 nm for 10-20 minutes at 37° C. […] In the software (SOFTmax Pro) used for data collection from the fluorometer (Molecular Devices: Gemini XS), it was ensured that the measured slopes were linear (R^2>0.99). […]

[2] = biological target: T2, cellular rat DPP-I (RBL-2H3 cells) (Rattus norvegicus, UniProt P80067); assay: Cellular DPP-I assay; assay type: cell-based; conditions: concentration and time not given
T2 construct: The RBL-2H3 cells (basophilic leukaemia cell line), were obtained from the American Type Culture Collection; endogenous in cells; host or cells: RBL-2H3 cells (ATCC)
T2 sequence (P80067 25-462): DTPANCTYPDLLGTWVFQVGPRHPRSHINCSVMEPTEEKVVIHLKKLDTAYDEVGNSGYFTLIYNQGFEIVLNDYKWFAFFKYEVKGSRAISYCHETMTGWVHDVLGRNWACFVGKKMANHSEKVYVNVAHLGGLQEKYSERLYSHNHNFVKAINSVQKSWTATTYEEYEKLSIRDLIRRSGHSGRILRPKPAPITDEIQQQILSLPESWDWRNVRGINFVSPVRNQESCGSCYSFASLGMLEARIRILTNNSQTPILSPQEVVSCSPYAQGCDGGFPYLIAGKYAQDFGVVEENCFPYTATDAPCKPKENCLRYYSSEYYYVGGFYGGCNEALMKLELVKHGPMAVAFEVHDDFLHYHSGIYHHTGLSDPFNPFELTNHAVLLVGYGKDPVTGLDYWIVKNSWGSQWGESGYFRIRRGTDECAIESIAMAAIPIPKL
Experimental: The following assay was used to the determine the inhibitory effect of compounds of the invention on cellular rat DPP-I.
The RBL-2H3 cells (basophilic leukaemia cell line), were obtained from the American Type Culture Collection. Cells were cultured at 37° C. in humidified air atmosphere with 5% CO2. Cells were grown in complete media (CM) consisting of RPMI (GIBCO) supplemented with 10% heat-inactivated foetal bovine serum (FBS; GIBCO), 100 U/mL penicillin and 100 ug/mL streptomycin (GIBCO).
All cell-based experiments employing inhibitors of DPP-I were performed by addition of the compound (kept below −20° C. as a 10 mM stock solution in DMSO (Sigma)) for indicated time and concentrations to sub-confluent cell cultures growing on culture dishes. All experiments were set up in triplicates. Following the treatment, cells were washed twice in ice-cold PBS (Sigma) and scraped from the culture dish. After another wash in PBS cells were lysed in ice-cold H2O containing 0.3% Triton×100. An additional volume of buffer containing 40 mM MOPS, 2M NaCl, 2 mM EDTA and 20% of glycerol was added. The cell lysate was clarified by centrifugation at 3000 rpm for 10 min. The resulting supernatant was transferred to eppendorf tubes. The Coomassie Plus Protein Assay (Pierece) was used to determine protein levels of the samples.
In Vitro Measurement of DPP-I Activity: […]

With `CC[C@H](N)C(=O)NNC(=O)N[C@@H](CCc1ccccc1)C(=O)N[C@@H](Cc1cccc(F)c1)C(N)=O` [Example 11, 1-(2S-2-Aminobutanoyl)-4-[2S-N-[2S-3-(m-fluorophenyl)propan-2-yl-amide]-4-phenylbutan-2-yl-amide]semicarbazide] (H-[Abu][azaGly][hPhe][Phe(3-F)]-NH2) the “Inhibition of Cathepsin B (in words)” value [1] was “does not inhibit”, the IC50 ([1]; human liver cathepsin B, read-out: Secondary enzymatic screening (10 μM cutoff or IC50) Cathepsin B) was 4.5 µM and the “Cellular (% inhibition) DPP-I (RBL-2H3 cells)” value [2] was 54%.
